How the values were obtained:
[1] = test system: IL-8 production of nerve cells C and nerve cells D; experiment: Cytotoxicity evaluation: inflammatory substance production (IL-8 ELISA); format: cell-based, human; conditions: 100, 160, 220 micromoles; 20 hours; FIG. 25
Experimental: In the same manner as in the evaluation of the cell survival rate, a N9 culture medium (available from Elixirgen Scientific, LLC) to which zinc chloride was added was added, and the container was left to stand still overnight (for 20 hours) in a CO2 incubator at 37 degrees C.
In order to evaluate the influence of zinc chloride on inflammatory substance production, only the culture medium was recovered with a micropipette. IL-8 production was measured by ELISA method using a protein measurement kit (product name: HUMAN IL-8 ELISA READY-SET-GO! (registered trademark), available from Affymetrix), and absorbances at 450 nm, and as a reference value, at 570 nm were measured with a plate reader. The results are plotted in FIG. 25.

[2] = test system: nerve cells C and nerve cells D; format: cell-based, human; conditions: 100, 160, 220 micromoles; 20 hours; FIG. 24
Experimental: In the same manner as in the evaluation of the cell survival rate, the N9 culture medium to which zinc chloride was added as described above was added, and the container was left to stand still overnight (for 20 hours) in a CO2 incubator at 37 degrees C.
In order to evaluate the influence of zinc chloride on cell membrane damage, only the culture medium was recovered with a micropipette and put in a 96-well cell contained container, a LDH assay reagent (product name: CYTOTOXICITY DETECTION KIT, available from Roche) was further added to each, and the resultant was allowed to undergo reaction at room temperature (23 degrees C.) for 5 minutes. Subsequently, absorbances at 492 nm, and as a reference value, at 620 nm were measured with a plate reader, to evaluate “cell membrane damage rate”. The results are plotted in FIG. 24.

[3] = test system: nerve cells C and nerve cells D; format: cell-based, human; conditions: 100, 160, 220 micromoles; 20 hours; FIG. 23
Experimental: N9 culture media (available from Elixirgen Scientific, LLC) to which zinc chloride as a test substance at four concentration conditions of 0 micromoles, 100 micromoles, 160 micromoles, and 220 micromoles was added respectively were added in the evaluation container of Production example 2 in an amount of 100 microliters with a micropipette, and the container was left to stand still overnight (for 20 hours) in a CO2 incubator at 37 degrees C.
Next, in order to evaluate the influence of zinc chloride on the cell survival rate, a WST-1 reagent (product name: PREMIX WST-1 CELL PROLIFERATION ASSAY SYSTEM, available from Takara Bio Inc.) was added in an amount of 10 microliters per well (concave), and left to stand still for 1 hour in an CO2 incubator at 37 degrees C. to be allowed to undergo reaction. Subsequently, absorbances at 450 nm, and as a reference value, at 570 nm were measured with a plate reader (instrument name: CYTATION 5, available from Bio Tek Instruments Inc.), to evaluate “cell survival rate”. The results are plotted in FIG. 23.

[4] = test system: nerve cells C and nerve cells D (differentiated from human induced iPS cells); experiment: Drug efficacy screening (Hoechst 33342 / PI / Calcein AM staining, fluorescence microscope cell counting) in cell contained container 2; format: cell-based; conditions: for Living cells / Dead cells: next day after addition
Experimental: The amount of the drug solution used was from 50 μL through 5,000 μL.
On the next day after the drug solution was added, the culture medium in each concave of the cell contained container was removed, and the concaves were washed with Hank's balanced salt solution (HBSS, available from Thermo Fisher Scientific Inc.) (200 microliters) at room temperature. After washing, HOECHST 33342 (available from Thermo Fisher Scientific Inc.), PI (Propidium Iodide, available from Cosmo Bio Co., Ltd.), and CALSEIN AM (available from Takara Bio Inc.) were each diluted 1,000-fold with HBSS, to prepare a stain mixture liquid, and the prepared stain mixture liquid was added in an amount of 200 microliters each. The cell contained container was then left to stand still in a 5% CO2 incubator for 20 minutes.
A fluorescence microscope image of the cell stained container after staining was completed was captured with a fluorescence microscope. The obtained fluorescence microscope image was processed with image processing software IMAGE J, to calculate the number of cells and the number of dead cells.

[5] = drug concentration 0.1 micromoles
[6] = drug concentration 0.3 micromoles
[7] = drug concentration 1.0 micromoles
[8] = drug concentration 3.0 micromoles
[9] = drug concentration 10 micromoles

| Compound | inflammatory substance production (IL-8), nerve cells C compared with nerve cells D [1] | cell membrane damage rate, nerve cells C compared with nerve cells D [2] | cell survival rate, nerve cells C compared with nerve cells D [3] | Drug efficacy rate (living cells/dead cells) [4, 5] | Living cells [4, 5] | Drug efficacy rate (living cells/dead cells) [4, 6] | Dead cells [4, 6] | Living cells [4, 6] | Drug efficacy rate (living cells/dead cells) [4, 7] | Living cells [4, 7] | Drug efficacy rate (living cells/dead cells) [4, 8] | Dead cells [4, 8] | Living cells [4, 8] | Drug efficacy rate (living cells/dead cells) [4, 9] | Dead cells [4, 9] | Living cells [4, 9] |
| --- | --- | --- | --- | --- | --- | --- | --- | --- | --- | --- | --- | --- | --- | --- | --- | --- |
| [Cl-].[Cl-].[Zn+2] [zinc chloride] | almost the same toxic response tendency | almost the same toxic response tendency | almost the same toxic response tendency |  |  |  |  |  |  |  |  |  |  |  |  |  |
| CN[C@@H]1C[C@H]2O[C@@](C)([C@@H]1OC)n1c3ccccc3c3c4c(c5c6ccccc6n2c5c31)C(=O)NC4 [STAUROSPORINE] |  |  |  | 70% | 271 cell | 57% | 202 cell | 270 cell | 54% | 268 cell | 42% | 270 cell | 197 cell | 2% | 474 cell | 11 cell |
